The subject of data set [1] is MDA-MB 231 cells. The data set can be described thus: MDA-MB 231 cells grown as orthotopic tumors in nude mice; lung and liver metastases. Here is the method: In addition, MDA231 cells were grown as orthotopic tumors in nude mice. […] In FIGS. 5 A and B, data were obtained by microscopic quantification of metastases in lungs and livers stained with hematoxylin and eosin. […] 4 wk BAPN represents treatment started at week 4, etc.
To evaluate the therapeutic usefulness of inhibiting LOX, mice with control MDA231 tumors were treated with β-aminoproprionitrile (BAPN), a specific and irreversible inhibitor of LOX enzymatic activity. […] In FIG. 5C, metastases were counted weekly over six weeks for ten sections (n=5 mice). Solid line, with circles control lung; dashed line with triangles, control liver; solid line with squares, BAPN lung; dashed line with squares, BAPN liver. BAPN was started at week 2. Antibody doses: unlabelled, 20 mg kg^−1; asterisk, 4 mg kg^−1; two asterisks, 1 mg kg^−1. Control, n=10; LOX shRNA, n=10; 4 wk BAPN, n=10; 3 wk BAPN, n=3; 2 wk BAPN, n=3; LOX antibody, n=5. Treatment details are given in Methods.
MDA-MB 231 cells were grown as subcutaneous orthotopic tumors in 6-week-old female Nude (nu/nu) mice following intradermal injection of 1×10^7 cells in 0.1 ml of PBS into the mammary fat pad. Mice were sacrificed and tumors excised six weeks after inoculation. […] Lung and liver metastases were defined as gross lesions of at least 25 cells.

Data set [2] deals with T1, LOX (Homo sapiens, UniProt P28300).
T1 construct: endogenous in cells; host or cells: Hypoxic cancer cells
T1 sequence (P28300 169-417): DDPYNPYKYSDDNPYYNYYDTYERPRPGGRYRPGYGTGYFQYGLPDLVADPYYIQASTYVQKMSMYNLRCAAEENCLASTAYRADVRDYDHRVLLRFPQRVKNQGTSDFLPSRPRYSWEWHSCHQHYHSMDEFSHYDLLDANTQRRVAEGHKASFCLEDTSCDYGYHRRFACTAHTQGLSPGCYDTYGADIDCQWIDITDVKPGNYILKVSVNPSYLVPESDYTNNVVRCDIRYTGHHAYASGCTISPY
The experiment in a line: LOX fluorescent activity assay, in vitro (conditioned medium from hypoxic cells). The class given is biochemical. The conditions noted are these: 500 μM BAPN, set as 0 fluorescence. From the text: LOX activity may be measured in a number of ways, using a soluble elastin or soluble collagen with labeled lysine as a substrate. Details of an activity assay are given in Royce et al., “Copper metabolism in mottled mouse mutants. The effect of copper therapy on lysyl oxidase activity in brindled (Mobr) mice,” Biochem J. 1982 Feb. 15; 202(2): 369-371. Especially preferred is a […] assay. One is described in Palamakumbura, et al. “A fluorometric assay for detection of lysyl oxidase enzyme activity in biological samples,” Anal Biochem. 2002 Jan. 15; 300(2):245-51. This method was used in the present work to assess LOX inhibition by BAPN and by anti-LOX antibody in cells in culture (using conditioned media) and in mice (using plasma), in a 96-well format.
LOX activity assay. The original method is described in Folgelgren, et al. J. Biol. Chem. 280:24690-24697 (2005). For the in vivo data, terminal bleeds were taken at the end of the experiment described above from untreated (control) mice, 2 and 3 wk BAPN mice, and antibody-treated mice. […] For the in vitro data, 50 μl of conditioned phenol-red-free medium was taken from cells incubated for 24 h under conditions of hypoxia. Samples were incubated overnight at 37° C. with different concentrations of BAPN or with purified LOX antibody at a concentration equivalent to 20 mg kg^−1 dose. Again, 0=fluorescent reading for 500 μM BAPN.

In data set [3] the test system is MDA231 and SiHa cells. The experiment in a line: In vitro invasion assay (Matrigel-coated inserts). The conditions noted are these: various human cancer cells; 24 hr oxygen deprived. The class given is cell-based. Here is the method: The first step of the metastatic process is cell invasion. […] The invasion of various human cancer cells in vitro was examined. […] Because LOX is a copper-dependent enzyme that can act intracellularly or extracellularly, cells were treated with bathocuprione disulphonate (BCS), a copper chelator that cannot permeate the cell membrane.
Invasive behavior was examined in vitro as previously described. Briefly, cells were serum deprived for 24 h then 2.5×10^4 cells were seeded in triplicate on both Matrigel-coated and uncoated inserts, moved to chambers containing 750 μl of FBS as a chemo-attractant and incubated at in normoxic or oxygen deprived conditions for 24 hr. Treatments with beta-aminoproprionitrile or bathocuprione disulphonate (Sigma) were performed 24 h prior to serum deprivation, and continued throughout the experiment.

Data set [4] has as its system lung and bone metastases. The data set can be described thus: Lung and bone metastases in treated mice (FIG. 17). The conditions noted are these: FIGS. 17A-D. The class given is in vivo. Here is the method:
FIGS. 17A-C are pictures of lungs from mice which were treated and untreated with LOX shRNA, a LOX antibody or BAPN, showing the effect of LOX treatment on metastases in lung.
FIGS. 17A-C are pictures of lungs from mice which were treated and untreated with LOX shRNA, the LOX antibody in Example 7 or BAPN, showing the effect of LOX treatment on metastases in lung.

Data set [5] relates to RAW macrophages. The experiment in a line: In vitro invasion of RAW macrophages towards conditioned media. It is filed as cell-based. The note with it: BAPN at 200 μM. Here is the method: To determine if LOX levels affected the migration or invasion of BMDCs, we performed in vitro invasion assays using CM as a chemo-attractant (FIG. 21B). The migration of BMDCs was increased by FN, regardless of LOX.
In vitro migration and invasion of RAW macrophage cells towards CM (as chemo-attractant) was measured in a transwell assay as described above. Fibronectin (cFN, Sigma) was used at 25 μg/ml and BAPN at 200 μM. Matrigel plugs were formed by mixing 60% Matrigel with 40% CM prior to subcutaneous injection of 500 μl of the mixture. Plugs were removed 7 days later, fixed in OCT, sectioned and stained for B-cells (B220). Cells in 10 fields of view were counted at least 50 μm away from the edge of the plug.

Where [6] appears, read: BAPN 100 mg kg-1 daily i.p. or antibody 20 mg kg-1 twice weekly, control MDA231 tumors.

Results on 1 compound are retold here after patent publication US20070225242A1, “Method and composition for treating and preventing tumor metastasis in vivo” (The Board of Trustees of the Leland Stanford Junior …, priority 2005, published 2007).

Turning to `N#CCCN` [BAPN, β-aminoproprionitrile], the “effect on metastatic tumors already formed” value in data set [1] (4 wk BAPN, treatment started at week 4) is “eliminated tumors that had formed”. Moreover, the liver metastases result is on record as “did not have any lung metastases or liver metastases” in data set [1] (setting [6]) and “no liver metastases” in data set [1] (reduced antibody doses (4, 1 mg kg-1) or reduced periods of BAPN treatment). Moreover, the lung metastases result in data set [1] (setting [6]) is reported as “did not have any lung metastases”; in data set [1] (reduced antibody doses (4, 1 mg kg-1) or reduced periods of BAPN treatment, even when metastases had already formed) it was “significantly fewer lung metastases”. Further, in data set [1] (BAPN treated mice), the “metastatic lesions formed in orthotopic studies” value is recorded as “completely absent”. In addition, the deleterious side effects entry in data set [1] (antibody up to 20 mg kg-1 twice weekly, BAPN 100 mg kg-1 daily i.p. for four, three or two weeks) was “no deleterious side effects”. Moreover, in data set [1] (inhibition of LOX with shRNA, BAPN or antibody), the primary tumor growth entry is “slight effect on primary tumor growth”. For the same compound, in data set [1] (primary tumors from treated mice or tumors expressing LOX shRNA), the “invasion of primary tumors” value is “showed evidence of invasion”. The LOX inhibition result in data set [2] is “complete LOX inhibition”. For the same compound, the “increased invasion under hypoxia or anoxia” value in data set [3] is listed as “could be prevented”. Further, the “lung and bone metastases” value in data set [4] was “either stabilized disease or regression of lung and bone metastases”. Moreover, the “increased BMDC invasion with hypoxic Wt CM” value in data set [5] is on record as “could be prevented”.
